For this experiment, the system named is CD2F1 mice, L1210 leukemia ip, survival T/C. The experiment in a line: NCI In Vivo Anticancer Drug Screen. Data for tumor model L1210 Leukemia (intraperitoneal) in CD2F1 (CDF1) mice. Conditions: higher = longer survival. Put shortly:
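Antitumor effect is scored in animals hosting a serially transplanted tumor. Values compare compound-dosed animals against vehicle-only controls as a simple quotient.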

[1] abbreviates: endpoint: mean survival time, dose: 50.0 mg/kg/injection, schedule: Q04DX003 (ip), vehicle: saline with Tween-80.
Setting [2] is: endpoint: mean survival time, dose: 100.0 mg/kg/injection, schedule: Q01DX009 (ip), vehicle: saline.
[3] abbreviates: endpoint: mean survival time, dose: 200.0 mg/kg/injection, schedule: Q01DX009 (ip), vehicle: saline.
Where [4] appears, read: endpoint: mean survival time, dose: 12.5 mg/kg/injection, schedule: Q01DX009 (ip), vehicle: saline.
Where [5] appears, read: endpoint: mean survival time, dose: 25.0 mg/kg/injection, schedule: Q01DX009 (ip), vehicle: saline.
Setting [6] is: endpoint: mean survival time, dose: 100.0 mg/kg/injection, schedule: Q04DX003 (ip), vehicle: saline with Tween-80.
Where [7] appears, read: endpoint: mean survival time, dose: 200.0 mg/kg/injection, schedule: Q04DX003 (ip), vehicle: saline with Tween-80.
The mark [8] stands for this setting: endpoint: mean survival time, dose: 50.0 mg/kg/injection, schedule: Q01DX009 (ip), vehicle: saline with Tween-80.
Where [9] appears, read: endpoint: mean survival time, dose: 100.0 mg/kg/injection, schedule: Q01DX009 (ip), vehicle: saline with Tween-80.
Setting [10] is: endpoint: mean survival time, dose: 200.0 mg/kg/injection, schedule: Q01DX009 (ip), vehicle: saline with Tween-80.
[11] abbreviates: endpoint: mean survival time, dose: 100.0 mg/kg/injection, schedule: Q04DX003 (ip), vehicle: saline.
Where [12] appears, read: endpoint: mean survival time, dose: 200.0 mg/kg/injection, schedule: Q04DX003 (ip), vehicle: saline.
[13] abbreviates: endpoint: mean survival time, dose: 400.0 mg/kg/injection, schedule: Q04DX003 (ip), vehicle: saline.

Where “and” joins values, the source holds several entries; their conditions need not be identical. Equal values may be shown once. Toxic doses and inconclusive results are not listed.

We go through 19 compounds from PubChem BioAssay AID256 (DTP/NCI, 2004).

For the compound `CC12CCCCC1SC(F)(F)C2(F)F` (stereo unspecified), the T/C runs as follows: (endpoint: mean survival time, dose: 12.5 mg/kg/injection, schedule: Q04DX003 (ip), vehicle: saline with Tween-80) 111 % of control; (endpoint: mean survival time, dose: 25.0 mg/kg/injection, schedule: Q04DX003 (ip), vehicle: saline with Tween-80) 88 % of control; under setting [1], 103 % of control.
As to `CN(C)P(=O)(N(C)C)N(C)C`, the T/C was 105 % of control under setting [2]; 104 % of control under setting [3]; 107 % of control (endpoint: mean survival time, dose: 400.0 mg/kg/injection, schedule: Q01DX009 (ip), vehicle: saline).
On to `NCCOC(=O)/C=C/c1ccccc1`, for which the T/C under setting [2] was 93 % of control and the T/C under setting [3] was 97 % of control.
Regarding `Nc1nc(N)c(-c2cccc(Cl)c2)c(CBr)n1`, the T/C was 102 % of control (endpoint: mean survival time, dose: 6.25 mg/kg/injection, schedule: Q01DX009 (ip), vehicle: saline); 103 % of control under setting [4]; 109 % of control under setting [5].
`CN1CC(CO)C(O)C2c3cccc4[nH]cc(c34)CC21` (stereo unspecified): the T/C by setting is: (endpoint: median survival time, dose: 25.0 mg/kg/injection, schedule: Q04DX003 (ip), vehicle: saline with Tween-80) 100 % of control; (endpoint: median survival time, dose: 50.0 mg/kg/injection, schedule: Q04DX003 (ip), vehicle: saline with Tween-80) 100 % of control; (endpoint: median survival time, dose: 100.0 mg/kg/injection, schedule: Q04DX003 (ip), vehicle: saline with Tween-80) 100 % of control; (endpoint: median survival time, dose: 200.0 mg/kg/injection, schedule: Q04DX003 (ip), vehicle: saline with Tween-80) 100 % of control.
As for `CCOC(=O)c1ccc(N2C(=O)C=CC2=O)cc1`, the T/C under setting [4] is 97 % of control.
With `COC(=O)C1c2ccccc2-c2ccccc21`, the T/C reads like this: under setting [1], 95 % of control; under setting [6], 103 % of control; under setting [7], 100 % of control.
Turning to `CN(C)c1ccc(/C=N\NC(=O)CNC(=O)Nc2ccc(F)cc2)c(Cl)c1`, the T/C is, setting by setting: under setting [8], 100 % of control; under setting [9], 88 % of control; under setting [10], 92 % of control.
As to `CC1OC(Sc2ncnc3nc[nH]c23)C(O)C(O)C1O` (stereo unspecified), the T/C was 105 % of control (endpoint: median survival time, dose: 12.5 mg/kg/injection, schedule: Q01DX005 (ip), vehicle: saline with Tween-80); 107 % of control (endpoint: median survival time, dose: 25.0 mg/kg/injection, schedule: Q01DX005 (ip), vehicle: saline with Tween-80); 103 % of control and 109 % of control (endpoint: median survival time, dose: 50.0 mg/kg/injection, schedule: Q01DX005 (ip), vehicle: saline with Tween-80); 122 % of control (endpoint: median survival time, dose: 100.0 mg/kg/injection, schedule: Q01DX005 (ip), vehicle: saline with Tween-80); 150 % of control and 151 % of control (endpoint: median survival time, dose: 200.0 mg/kg/injection, schedule: Q01DX005 (ip), vehicle: saline with Tween-80); 170 % of control (endpoint: median survival time, dose: 400.0 mg/kg/injection, schedule: Q01DX005 (ip), vehicle: saline with Tween-80).
As for `O[Si](c1ccccc1)(c1ccccc1)c1ccccc1`, the T/C runs as follows: under setting [6], 102 % of control; under setting [7], 97 % of control; (endpoint: mean survival time, dose: 400.0 mg/kg/injection, schedule: Q04DX003 (ip), vehicle: saline with Tween-80) 92 % of control.
With `Cc1ccc([N+](=O)[O-])cc1NC(=O)Nc1ncccn1`, the T/C is, setting by setting: (endpoint: mean survival time, dose: 50.0 mg/kg/injection, schedule: Q01DX009 (ip), vehicle: Klucel (hydroxypropylcellulose) (HPC)) 93 % of control; (endpoint: mean survival time, dose: 100.0 mg/kg/injection, schedule: Q01DX009 (ip), vehicle: Klucel (hydroxypropylcellulose) (HPC)) 96 % of control; (endpoint: mean survival time, dose: 200.0 mg/kg/injection, schedule: Q01DX009 (ip), vehicle: Klucel (hydroxypropylcellulose) (HPC)) 93 % of control.
As for `CN(C)CCCCNc1ccc(NCCCCN(C)C)c2c1C(=O)c1c(O)ccc(O)c1C2=O`, the T/C under setting [5] was 102 % of control; the T/C (endpoint: mean survival time, dose: 50.0 mg/kg/injection, schedule: Q01DX009 (ip), vehicle: saline) is 98 % of control; the T/C under setting [2] is 93 % of control.
On to `C/C=C/C[P+](Cc1ccccc1)(c1ccccc1)c1ccccc1`, for which the T/C is 97 % of control (endpoint: mean survival time, dose: 0.39 mg/kg/injection, schedule: Q01DX009 (ip), vehicle: saline); 96 % of control (endpoint: mean survival time, dose: 0.78 mg/kg/injection, schedule: Q01DX009 (ip), vehicle: saline); 102 % of control (endpoint: mean survival time, dose: 1.56 mg/kg/injection, schedule: Q01DX009 (ip), vehicle: saline); 103 % of control (endpoint: mean survival time, dose: 3.13 mg/kg/injection, schedule: Q01DX009 (ip), vehicle: saline).
Consider `COC(=O)C(NC(C)=O)C(O)Cl` (stereo unspecified), for which the T/C under setting [11] is 102 % of control, the T/C under setting [12] is 100 % of control and the T/C under setting [13] is 98 % of control.
Consider `COc1ccccc1C1C=CCCCC1` (stereo unspecified), for which the T/C was 95 % of control under setting [11], 93 % of control under setting [12] and 96 % of control under setting [13].
With `Cc1ccc(NC(=O)OCCOc2ccc(-c3ccccc3)cc2)cc1[N+](=O)[O-]`, the T/C is 98 % of control under setting [8], 98 % of control under setting [9] and 94 % of control under setting [10].
In the case of `O=[N+]([O-])c1cccc(OCCCOc2ccccc2)c1`, the T/C is 93 % of control (endpoint: mean survival time, dose: 100.0 mg/kg/injection, schedule: Q04DX003 (ip), vehicle: other); 93 % of control (endpoint: mean survival time, dose: 200.0 mg/kg/injection, schedule: Q04DX003 (ip), vehicle: other); 94 % of control (endpoint: mean survival time, dose: 400.0 mg/kg/injection, schedule: Q04DX003 (ip), vehicle: other).
As to `Nc1nc(N)c(-c2ccc(Cl)cc2)c(COc2ccc(CCC3(CCl)OCCO3)cc2)n1`, the T/C reads like this: (endpoint: mean survival time, dose: 25.0 mg/kg/injection, schedule: Q01DX001 (ip), vehicle: saline with Tween-80) 101 % of control; (endpoint: mean survival time, dose: 50.0 mg/kg/injection, schedule: Q01DX001 (ip), vehicle: saline with Tween-80) 101 % of control; (endpoint: mean survival time, dose: 100.0 mg/kg/injection, schedule: Q01DX001 (ip), vehicle: saline with Tween-80) 108 % of control.
Take `O=C(O)c1cc(C(=O)O)c(C(=O)O)cc1C(=O)O.[NH2-].[NH2-].[NH2-].[NH2-].[Pt+2].[Pt+2]`: the T/C runs as follows: (endpoint: mean survival time, dose: 0.2 mg/kg/injection, schedule: Q04DX003 (ip), vehicle: water) 124 % of control and 106 % of control; (endpoint: mean survival time, dose: 0.39 mg/kg/injection, schedule: Q04DX003 (ip), vehicle: water) 115 % of control and 119 % of control; (endpoint: mean survival time, dose: 2.0 mg/kg/injection, schedule: Q04DX003 (ip), vehicle: water) 98 % of control; (endpoint: mean survival time, dose: 4.0 mg/kg/injection, schedule: Q04DX003 (ip), vehicle: water) 97 % of control; (endpoint: mean survival time, dose: 8.0 mg/kg/injection, schedule: Q04DX003 (ip), vehicle: water) 106 % of control; (endpoint: mean survival time, dose: 16.0 mg/kg/injection, schedule: Q04DX003 (ip), vehicle: water) 110 % of control. Moreover, the T/C (endpoint: median survival time, dose: 0.12 mg/kg/injection, schedule: Q01DX009 (ip), vehicle: water) was 97 % of control; the T/C (endpoint: median survival time, dose: 0.25 mg/kg/injection, schedule: Q01DX009 (ip), vehicle: water) was 97 % of control; the T/C (endpoint: median survival time, dose: 0.5 mg/kg/injection, schedule: Q01DX009 (ip), vehicle: water) is 97 % of control; the T/C (endpoint: median survival time, dose: 1.0 mg/kg/injection, schedule: Q01DX009 (ip), vehicle: water) is 92 % of control and 100 % of control and 112 % of control; the T/C (endpoint: median survival time, dose: 2.0 mg/kg/injection, schedule: Q01DX009 (ip), vehicle: water) was 100 % of control and 101 % of control and 109 % of control; the T/C (endpoint: median survival time, dose: 4.0 mg/kg/injection, schedule: Q01DX009 (ip), vehicle: water) was 124 % of control and 105 % of control. In addition, the T/C is, setting by setting: (endpoint: median survival time, dose: 8.0 mg/kg/injection, schedule: Q01DX009 (ip), vehicle: water) 124 % of control and 111 % of control (2×); (endpoint: median survival time, dose: 16.0 mg/kg/injection, schedule: Q01DX009 (ip), vehicle: water) 96 % of control; (endpoint: median survival time, dose: 32.0 mg/kg/injection, schedule: Q01DX009 (ip), vehicle: water) 90 % of control.
